Reference: patent US20040132793A1, “Pyrazole derivatives” (Pfizer Inc., priority 2002, published 2004)

How the values were obtained:
[1] = Metabolism in human liver microsomes; assay type: in vitro ADME; conditions: pH 7.4, human microsomes 0.5 μM cytochrome P450, substrate 1 μM, 37° C., 1 hour, read-out: t 1/2 (human microsomal)
Experimental: (§1) A. Metabolism in Human Liver Microsomes and Supermix™ The metabolic vulnerability of the compounds of the invention in microsomes and Supermix™ may be assayed as follows. The microsomal fraction is isolated from several human livers and the P450 content determined. Supermix™ is obtained from Gentest. Human microsomes (0.5 μM cytochrome P450) and Supermix™ (0.05 μM cytochrome P450) are added to an incubation media containing 50 mM phosphate buffer (pH7.4), 5 mM MgCl2, 1 mM NADP and an NADPH generating system consisting of isocitrate and isocitrate dehydrogenase. The substrate concentration is 1 μM and incubations are carried out at 37° C. for 1 hour. Samples are taken at time points throughout this period and analysed using hplc-ms-ms assay.

[2] = Metabolism in human hepatocytes; assay type: in vitro ADME; conditions: cryopreserved human hepatocytes 1 million cells/ml; substrate 3 μM; 37° C., 3 hours
Experimental: B. Metabolism in Human Hepatocytes.
The metabolic vulnerability of the compounds of the invention in human hepatocytes may be assayed as follows.
Cryopreserved human hepatocytes are obtained from In vitro Technologies, Inc. The hepatocytes are thawed and suspended at 1 million cells/ml in 50% Krebs-Heinsleit buffer: 50% Williams E media containing 10% foetal bovine serum. The substrate concentration is 3 μM and incubations are carried out at 37° C. for 3 hours. Samples are taken at time points throughout this period and analysed using hplc-ms-ms assay.

Metabolism in Supermix = assay type: in vitro ADME; conditions: human, Supermix (Gentest), pH 7.4; Supermix 0.05 μM cytochrome P450; substrate 1 μM; 37° C., 1 hour; read-out: t 1/2 (Supermix)
Experimental: as §1

[3] = target: T1, purified recombinant HIV-1 reverse transcriptase (Human immunodeficiency virus type 1 group M subtype B, UniProt P04585); experiment: Inhibition of HIV-1 reverse transcriptase enzyme; assay type: biochemical
T1 construct: purified recombinant HIV-1 reverse transcriptase (RT, EC, 2.7.7.49); made in house; host or cells: Escherichia coli
Description: The activity of the compounds of the invention as reverse transcriptase inhibitors may be measured using the following assay.
Inhibition of HIV-1 Reverse Transcriptase Enzyme
Using purified recombinant HIV-1 reverse transcriptase (RT, EC, 2.7.7.49) obtained by expression in Escherichia Coli, a 96-well plate assay system is established for assaying a large number of samples using either the Poly(rA)-oligo(dT) Reverse Transcriptase [3H]-SPA enzyme assay system (Amersham NK9020) or the [3H]-flashplate enzyme assay system (NEN-SMP 103) and following the manufacturer's recommendations. The compounds are dissolved in 100% DMSO and diluted with the appropriate buffer to a 5% final DMSO concentration. The inhibitory activity is expressed in percent inhibition relative to DMSO control.

Cc1c(Oc2cc(C#N)cc(C#N)c2)c(C2CC2)nn1CCO [Example 1, 5-{[3-Cyclopropyl-1-(2-hydroxyethyl)-5-methyl-1H-pyrazol-4-yl]oxy}isophthalonitrile]
half-life at 1 μM [1]: > 2 h | unbound hepatocyte clearance [2]: < 9 mL/min/kg | half-life at 1 μM (Metabolism in Supermix): > 2 h | IC50 [3]: 295 nM
